Assay results taken from patent US12448388B2, “PRMT5 inhibitors and uses thereof” (Gilead Sciences, Inc., priority 2023, dated 2025).
Read-outs that look alike come from different tables or passages of the source.

Assays:
[1] = system: HCT116 MTAP-deleted cell lines; assay: Cell viability assay (CellTiter-Glo, 7 days), HCT116 MTAP-deleted; format: cell-based; conditions: Homo sapiens, HCT-116, HCT116 MTAP-deleted, class symbols, read-out: CC50
Procedure, shortened: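 Dose-response, PRMT5 inhibitors from DMSO serial dilution, pre-spotted; cells seeded onto compound plates. 7 d, 37 °C/5% CO2/90% RH. Readout: CTG luminescence → CC50.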

[2] = system: Symmetric Di-methyl Arginine (SDMA) signal (PRMT5 inhibition) in HCT116 MTAP-deleted cells; assay: Symmetric di-methyl arginine image-based high content screen assay (SDMA assay), HCT116 MTAP-deleted; format: cell-based; conditions: for EC50: Homo sapiens, HCT-116, HCT116 MTAP-deleted, class symbols
Method: Symmetric di-methyl arginine image-based high content screen assay (SDMA assay) was performed in HCT116 WT and HCT116 MTAP-deleted cell lines to measure Symmetric Di-methyl Arginine (SDMA) signal reduction after selective PRMT5 inhibition in the MTAP-deleted cells. Control compounds were analyzed in parallel each time for quality control.
Briefly, the same compound plates were generated as mentioned in the previous section of Cell viability assay on Day −1. On Day 0, 800 HCT WT or HCT116 MTAP-deleted cell were seeded in compound-containing 384 well plates (50 μl per well) in RPMI 1640 media supplemented with 10% heat inactivated fetal bovine serum, Glutamax and penicillin streptomycin using EL460 liquid dispenser 5 μl cassette (BioTek, part no. 7170011). After equilibrating the plate at room temperature, the cells were incubated for 3 days inside the sealed incubator set at 37° C. with 90% humidity and 5% C02.
On Day 3, the cells were fixed by adding 45 μl of 8% neutralized formalin solution to each well using EL460 liquid dispenser 5 μl cassette and the cells were incubated for 30 minutes at room temperature. The formalin solution was washed off with […] phosphate buffered saline (dPBS), the 0.1% Triton X-100 solution in dPBS was used to permeabilize the cells for 15 minutes at room temperature. The triton solution was aspirated, 50 μl of Odyssey Blocking buffer +0.05% Tween20 was added and the plate was incubated at room temperature for 30 minutes.
The blocking solution was removed, a 20 μl of SDMA antibody (Cell Signaling Technology, Cat no. 13222) diluted 1:500 in Odyssey Blocking buffer +0.05% Tween20 was added and the plate was incubated at 4° C. overnight. Next day, the primary SDME antibody solution was washed from each well three times with 0.05% Tween20 in dPBS (PBST).
A 30 μl of the secondary antibody, a Goat anti-Rabbit Alexa Fluor Plus 488 (Invitrogen, Cat no. PIA32731) was diluted 1:500 in Odyssey Blocking buffer +0.05% Tween20 and the plate was incubated for 1.5 hours in dark at room temperature. The secondary antibody solution was removed, 30 μl of 5 mg/ml DAPI solution diluted 1:2000 in dPBS was added and the plate was incubated for 30 minutes in dark at room temperature. The DAPI solution was aspirated and the wells were washed six times with dPBS.
The SDMA signal and DAPI signal per cell were counted using a Cellomics CX7 LZR instrument reading under 488 and 405 nm laser, respectively. The SDMA signal was quantified by mean average intensity per cell from Alexa Fluor Plus 488 after the cell was defined with DAPI. The EC50 values for each compound after 3 days of treatment were calculated using 4 parameter non-linear logistical curve fit.
For the SDMA assay i.e. EC50 shown in Table 3A: A: EC50≤1 nM, B: 1 nM<EC50≤5 nM, C: EC50>5 nM.

[3] = HCT116 WT versus HCT116 MTAP-deleted
[4] = HCT116 WT vs HCT116 MTAP-deleted

Row | EC50 selectivity [2, 3] | EC50 [2] [nM] | EC50 selectivity [2, 4] | Structure (SMILES) | CC50 ([1]; cell viability) [nM] | CC50 ([1]; cell viability assay) [nM]
1 | 67 | 1 to 5 | – | C[C@@H]1C[C@@H]2Cc3nc(C(F)(F)F)ccc3[C@@H]2N(C(=O)c2cc3c(cc2F)nc(N)c2cncn23)C1 (racemic) [Ff-321, Rac-(4-amino-7-fluoroimidazo[1,5-a]quinoxalin-8-yl)((4bR,7R,8aR)-7-methyl-2-(trifluoromethyl)-4b,6,7,8,8a,9-hexahydro-5H-cyclopenta[1,2-b:3,4-b′]dipyridin-5-yl)methanone] | < 100 | –
2 | – | 1 to 5 | 128 | Cc1ncc2c(N)nc3cnc(C(=O)N4C[C@H](F)C[C@@H]5Oc6cc(C(F)(F)F)ccc6[C@@H]54)cc3n12 (racemic) [Ff-682, Rac-(4-amino-1-methylimidazo[1,5-a]pyrido[3,4-e]pyrazin-8-yl)((3R,4aS,9bS)-3-fluoro-7-(trifluoromethyl)-3,4,4a,9b-tetrahydrobenzofuro[3,2-b]pyridin-1(2H)-yl)methanone] | – | < 100
3 | – | ≤ 1 | 137 | Nc1nc2cc(F)c(C(=O)N3C[C@H](F)CC4Oc5cc(OC(F)(F)F)ccc5C43)cc2n2cncc12 (mixture of isomers) [Fg-57, rac-(4-amino-7-fluoroimidazo[1,5-a]quinoxalin-8-yl)((3R,4aS,9bS)-3-fluoro-7-(trifluoromethoxy)-3,4,4a,9b-tetrahydrobenzofuro[3,2-b]pyridin-1(2H)-yl)methanone] | – | < 100
4 | – | 1 to 5 | 345 | Nc1nc2ccc(C(=O)N3C[C@H](F)CC4Oc5cc(OC(F)(F)F)ccc5C43)cc2n2cncc12 (mixture of isomers) [Fg-58, rac-(4-aminoimidazo[1,5-a]quinoxalin-8-yl)((3R,4aS,9bS)-3-fluoro-7-(trifluoromethoxy)-3,4,4a,9b-tetrahydrobenzofuro[3,2-b]pyridin-1(2H)-yl)methanone] | – | < 100
5 | 64 | 1 to 5 | – | C[C@@H]1CN(C(=O)c2cc3c(cc2F)nc(N)c2cncn23)[C@H]2c3ccc(Br)c(F)c3C[C@H]2O1 (single isomer, unassigned) [Ff-163] | < 100 | –
6 | – | ≤ 1 | 68 | Nc1nc2cc(F)c(C(=O)N3CCC[C@@H]4OCc5cc(OC(F)F)ccc5[C@@H]43)cc2n2cncc12 (single isomer, unassigned) [Ff-392] | – | < 100
7 | – | ≤ 1 | 47 | C[C@H]1C[C@@H]2Oc3cc(C(F)(F)F)ccc3[C@@H]2N(C(=O)c2cc3c(cn2)nc(N)c2cncn23)C1 (single isomer, unassigned) [Ff-399] | – | < 100
8 | – | > 5 | 315 | Nc1nc2cnc(C(=O)N3CCC[C@@H]4Oc5cc(C(F)(F)F)ccc5[C@@H]43)cc2n2c(F)ncc12 (single isomer, unassigned) [Ff-625] | – | 100 to 1000
9 | – | 1 to 5 | 143 | Nc1nc2cnc(C(=O)N3CCC[C@@H]4Oc5cc(C(F)(F)F)ccc5[C@@H]43)cc2n2cnc(F)c12 (single isomer, unassigned) [Ff-626] | – | < 100
10 | 152 | > 5 | – | CC(=O)N(C)N(Cc1ccc(C(F)(F)F)cn1)C(=O)c1ccc2nc(N)n3cncc3c2c1 [Fa-1, N′-acetyl-5-amino-N′-methyl-N-((5-(trifluoromethyl)pyridin-2-yl)methyl)imidazo[1,5-c]quinazoline-9-carbohydrazide] | > 1000 | –
11 | 22 | > 5 | – | Nc1nc2ccc(C(=O)N(Cc3ccc(C(F)(F)F)cn3)N3CCOCC3)cc2c2cncn12 [Fa-3, 5-amino-N-morpholino-N-((5-(trifluoromethyl)pyridin-2-yl)methyl)imidazo[1,5-c]quinazoline-9-carboxamide] | > 1000 | –
12 | 74 | 1 to 5 | – | Cc1ncn2c1c(N)nc1ccc(C(=O)N(Cc3ccc(C(F)(F)F)cc3F)N(C)C(=O)C3CC3)cc12 [Fa-4, 4-amino-N′-(cyclopropanecarbonyl)-N-(2-fluoro-4-(trifluoromethyl)benzyl)-N′,3-dimethylimidazo[1,5-a]quinoxaline-8-carbohydrazide] | < 100 | –

Second part, the compound before the results:

Row | Structure (SMILES) | EC50 selectivity [2, 3] | EC50 [2] [nM] | EC50 selectivity [2, 4] | CC50 ([1]; cell viability) [nM] | CC50 ([1]; cell viability assay) [nM]
13 | COc1ccc2c(c1)CO[C@H]1CCCN(C(=O)c3cc4c(cc3F)nc(N)c3cncn34)[C@@H]21 (racemic) [Ff-44, Rac-(4-amino-7-fluoroimidazo[1,5-a]quinoxalin-8-yl)((cis)-8-methoxy-2,3,4,4a,6,10b-hexahydro-1H-isochromeno[4,3-b]pyridin-1-yl)methanone] | 73 | 1 to 5 | – | < 100 | –
14 | Nc1nc2cc(F)c(C(=O)N3CCCC4OCc5nc(C(F)(F)F)ccc5[C@@H]43)cc2n2cncc12 (mixture of isomers) [Ff-319, Rac-(4-amino-7-fluoroimidazo[1,5-a]quinoxalin-8-yl)((4aS,10bS)-8-(trifluoromethyl)-2,3,4,4a,6,10b-hexahydro-1H-pyrano[3,2-b:5,4-b′]dipyridin-1-yl)methanone] | 42 | 1 to 5 | – | < 100 | –
15 | C[C@@H]1CC2Cc3cc(C(F)(F)F)ccc3[C@@H]2N(C(=O)c2cc3c(cc2F)nc(N)c2cncn23)C1 (mixture of isomers) [Ff-320, Rac-(4-amino-7-fluoroimidazo[1,5-a]quinoxalin-8-yl)((3R,4aR,9bR)-3-methyl-7-(trifluoromethyl)-2,3,4,4a,5,9b-hexahydro-1H-indeno[1,2-b]pyridin-1-yl)methanone] | 26 | 1 to 5 | – | < 100 | –
16 | Nc1nc2cc(F)c(C(=O)N3CCC[C@H]4OCc5cc(OC(F)F)ccc5[C@H]43)cc2n2cncc12 (single isomer, unassigned) [Ff-391] | – | 1 to 5 | 26 | – | < 100
17 | Nc1nc2ccc(C(=O)N3C[C@H](F)C[C@@H]4Oc5cc(C(F)(F)F)ccc5[C@@H]43)cc2n2cncc12 (single isomer, unassigned) [Ff-681] | – | ≤ 1 | 313 | – | < 100
18 | Nc1nc2cnc(C(=O)N3CCC[C@@H]4Cc5cc(C(F)(F)F)ccc5[C@@H]43)cc2n2cncc12 (single isomer, unassigned) [Ff-687] | – | ≤ 1 | 325 | – | < 100
19 | C[C@H]1C[C@@H]2Oc3cc(C(F)(F)F)ccc3[C@@H]2N(C(=O)c2ccc3nc(N)c4cncn4c3c2)C1 (single isomer, unassigned) [Ff-689] | – | ≤ 1 | 59 | – | < 100
20 | Cc1ncc2c(N)nc3ccc(C(=O)N(Cc4ccc(C(F)(F)F)cn4)N(C)c4ncccn4)cc3n12 [Fa-2, 4-amino-N′,1-dimethyl-N′-pyrimidin-2-yl-N-[[5-(trifluoromethyl)-2-pyridyl]methyl]imidazo[1,5-a]quinoxaline-8-carbohydrazide] | 17 | ≤ 1 | – | < 100 | –
21 | CC(=O)N(C)N(Cc1ccc(-c2cnn(C(F)(F)F)c2)cc1F)C(=O)c1ccc2nc(N)c3c(C)ncn3c2c1 [Fa-5, N′-acetyl-4-amino-N-(2-fluoro-4-(1-(trifluoromethyl)-1H-pyrazol-4-yl)benzyl)-N′,3-dimethylimidazo[1,5-a]quinoxaline-8-carbohydrazide] | 101 | 1 to 5 | – | < 100 | –
